Assay results taken from patent US11672788B2, “Histone deacetylase inhibitors for immunomodulation in tumor microenvironment” (GREAT NOVEL THERAPEUTICS BIOTECH & MEDICALS CORPORATION, priority 2020, dated 2023).
Converted amounts (≈) assume the structure as drawn.

Experiments:
[1] = Saturation solubility; format: physicochemical; details: ddH2O, 25° C., mean ± SD, BDL: Below detection limit; for Saturation Solubility: 90 minutes
Method: Samples of 5 mg of compounds were added to 5 ml volumetric flasks containing ddH2O and shaken at 100 rpm in an incubator at 25° C. for 90 minutes. The resulting suspension was filtered through a 0.22 μm filter. The concentrations of compounds were determined spectrophotometrically at 256 nm. The saturation solubility of each sample was determined in triplicates and the mean value and standard deviation were reported.

[2] = tested on: NCI-N87; test: In vitro cytotoxicity MTT assay; format: cell-based; details: Homo sapiens, 72 h, IC50 ± SD
Method: (§1) Six different cell lines were used, including human breast cancer cell line MDA-MB-231 (6×10^3), MDA-MB-453 (2.4×10^4), SK-BR-3 (6×10^3), human breast epithelial cell line M10 (6×10^3), human gastric carcinoma NCI-N87 (2.4×10^4), and human colorectal adenocarcinoma SW48 (2.4×10^4), and seeded in a 96 well plate. Cell lines were obtained from Bioresource Collection and Research Center, BCRC, Taiwan. […] After 72 h, MTT assay (Cayman™) was used to determine the cellular viability.

[3] = tested on: SK-BR-3; test: In vitro cytotoxicity MTT assay; format: cell-based; details: Homo sapiens, 72 h, IC50 ± SD
Method: as §1

[4] = tested on: M10; test: In vitro cytotoxicity MTT assay; format: cell-based, human; details: IC50 ± SD
Method: as §1

[5] = tested on: MDA-MB-231; test: In vitro cytotoxicity MTT assay; format: cell-based, human; details: IC50 ± SD
Method: as §1

[6] = tested on: MDA-MB-453; test: In vitro cytotoxicity MTT assay; format: cell-based, human; details: IC50 ± SD
Method: as §1

[7] = tested on: SW48; test: In vitro cytotoxicity MTT assay; format: cell-based, human; details: IC50 ± SD
Method: as §1

[8] = target: T1, HDAC3 (Homo sapiens (Human), UniProt O15379); test: HDAC3 enzymatic kinetic assay; format: biochemical; details: 2 μM; 20 min, 40 min and 60 min
T1 sequence (O15379 whole entry): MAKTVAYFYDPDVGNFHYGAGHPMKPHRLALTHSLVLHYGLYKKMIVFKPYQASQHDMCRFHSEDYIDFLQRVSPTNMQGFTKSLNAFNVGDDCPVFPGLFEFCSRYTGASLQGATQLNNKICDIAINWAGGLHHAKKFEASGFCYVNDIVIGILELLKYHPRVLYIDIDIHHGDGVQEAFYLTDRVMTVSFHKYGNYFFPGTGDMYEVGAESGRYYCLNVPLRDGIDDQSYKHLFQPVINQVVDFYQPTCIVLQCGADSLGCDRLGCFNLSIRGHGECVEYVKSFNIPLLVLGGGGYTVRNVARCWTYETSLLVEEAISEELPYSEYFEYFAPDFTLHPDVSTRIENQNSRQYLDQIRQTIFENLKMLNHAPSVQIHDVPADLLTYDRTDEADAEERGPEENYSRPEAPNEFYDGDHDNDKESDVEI
T1 sequence (Q9Y618 395-489 partner): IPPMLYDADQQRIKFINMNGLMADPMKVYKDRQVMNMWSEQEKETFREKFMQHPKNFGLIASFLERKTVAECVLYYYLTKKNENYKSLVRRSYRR
Method: HDAC3 enzymatic kinetic assay was performed according to standard Protocols (Fluorgenic HDAC3 assay kit, BPS Bioscience™). […] After incubation, assay developer was added to the samples and the absorbance was read at fluorogenic wavelength. The relative inhibition to HDAC3 activity in each sample was determined.

[9] = tested on: SW48 cells; test: Cell cycle arrest by PI flow cytometry; format: cell-based, human; details: for Percentage of Cell Cycle Distribution G0/G1 / Percentage of Cell Cycle Distribution G2/M / Percentage of Cell Cycle Distribution S: 72 h; for Cell cycle arrest: SW48, doses of Table 12
Method: (§2) A PI/RNase staining assay (BD Bioscience™) was performed to reveal the presence of cell cycle arrest and apoptotic cells after treatment with GNTbm compounds, Chidamide and Entinostat. […] After treatment cells were harvested, fixed with 80% ethanol for 24 h, washed with 1×PBS and stained with PI/RNase for 15 min at room temperature. The cells were then analyzed using Flow Cytometer within 1 h.

[10] = tested on: SW48 cells; test: Cell apoptosis (sub-G1) by PI flow cytometry; format: cell-based, human; details: 72 h; for Induction of apoptosis: SW48, indicated doses (Table 13)
Method: as §2

[11] = target: HDAC1 (Homo sapiens (Human), UniProt Q13547); test: HDACs 1, 2, and 3 enzymatic inhibition (fluorogenic kit, 1 h); format: biochemical; details: 37° C.
Chain of HDAC1 (Q13547 whole entry): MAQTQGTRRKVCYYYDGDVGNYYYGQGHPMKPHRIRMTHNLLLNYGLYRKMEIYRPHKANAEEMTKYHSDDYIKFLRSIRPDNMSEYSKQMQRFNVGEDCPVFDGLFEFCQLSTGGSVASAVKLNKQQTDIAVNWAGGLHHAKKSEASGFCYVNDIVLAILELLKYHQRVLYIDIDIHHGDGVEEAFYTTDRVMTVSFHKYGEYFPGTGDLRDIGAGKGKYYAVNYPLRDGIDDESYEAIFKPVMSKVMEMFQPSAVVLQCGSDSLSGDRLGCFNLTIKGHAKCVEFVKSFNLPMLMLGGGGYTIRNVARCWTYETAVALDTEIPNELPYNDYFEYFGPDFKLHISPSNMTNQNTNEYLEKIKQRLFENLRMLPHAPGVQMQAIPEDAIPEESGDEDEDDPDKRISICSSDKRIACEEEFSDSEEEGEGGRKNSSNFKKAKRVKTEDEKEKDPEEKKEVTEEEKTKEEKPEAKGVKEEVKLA
Method: (§3) HDACs assay was performed according to standard Protocols (Fluorgenic HDACs 1, 2, and 3 assay kit, BPS Bioscience™). […] After 1 h, assay developer was added to the samples and the absorbance was read at fluorogenic wavelength. The relative inhibition to HDACs 1, 2, and 3 activities in each sample was determined.

[12] = target: HDAC2 (Homo sapiens (Human), UniProt Q92769); test: as above; format: biochemical; details: 37° C.
Chain of HDAC2 (Q92769 whole entry): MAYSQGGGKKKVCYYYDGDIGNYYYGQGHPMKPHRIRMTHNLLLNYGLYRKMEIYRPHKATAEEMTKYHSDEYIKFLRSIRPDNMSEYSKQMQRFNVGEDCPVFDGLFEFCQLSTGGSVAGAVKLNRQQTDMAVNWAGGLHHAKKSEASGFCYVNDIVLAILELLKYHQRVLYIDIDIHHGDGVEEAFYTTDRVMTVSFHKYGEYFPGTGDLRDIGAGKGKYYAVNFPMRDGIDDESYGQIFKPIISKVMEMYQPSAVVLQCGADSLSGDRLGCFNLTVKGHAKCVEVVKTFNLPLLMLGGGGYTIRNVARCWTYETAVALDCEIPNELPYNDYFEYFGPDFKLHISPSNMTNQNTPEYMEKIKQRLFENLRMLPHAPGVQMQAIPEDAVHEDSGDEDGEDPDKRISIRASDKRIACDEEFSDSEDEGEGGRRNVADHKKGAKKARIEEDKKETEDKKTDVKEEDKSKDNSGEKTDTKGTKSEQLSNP
Method: as §3

[13] = target: T1, HDAC3; test: as above; format: biochemical; details: 37° C.
Method: as §3

[14] = tested on: histone H3 acetylation (AcH3) in SW48 cells; test: Western blot of histone H3 acetylation; format: cell-based, human; details: SW48, 24 h, FIG. 12c
Method: Human breast cancer MDA-MB-231 cells and human colorectal adenocarcinoma SW48 cells were analyzed. MDA-MB-231 and SW48 were obtained from Bioresource Collection and Research Center (BCRC, Taiwan). MDA-MB-231 and SW48 were grown at 37° C. under humidified air supplemented without CO2 in Leibovitz's L-15 (cat. #11415114, Thermo Fisher Scientific) containing 10% heat inactivated fetal calf serum (Thermo Scientific), 1× concentration of MycoZap antibiotics (cat. #VZA-2011, Lonza). Cells were treated with GNTbm compounds series, Chidamide or Entinostat for different time periods or at varied doses. Cells were treated with indicated doses for 24 h or cells were treated with indicated doses for different time periods. Cell pellets were dissolved with RIPA buffer (cat. #20-188, Merck) with protease and phosphatase inhibitors (cat. #K272, BioVision) and clarified by centrifugation. Equal amounts of total protein were resolved by SDS-PAGE and transferred to polyvinylidene fluoride membranes (cat. #1620177, BIO-RAD). Blots were incubated with primary antibodies against β-actin (cat. #sc-47778, Santa Cruz Biotechnology), Histone 3ac (cat. #61637, Active Motif), and HRP secondary antibodies anti-rabbit (ab6721, Abcam) and anti-mouse (sc-2005, Santa Cruz). Blots were developed using the ECL Western Blotting Substrate (cat. #sc-2048, Santa Cruz Biotechnology) Image blots were analyzed with the iBright FL1000 (Thermo Fisher Scientific) imaging systems.

Row | Structure (SMILES) | Saturation Solubility [1] | IC50 [2] [nM] | IC50 [3] [nM] | IC50 ([4]; Homo sapiens, M10, 72 h) [nM] | IC50 ([5]; Homo sapiens, MDA-MB-231, 72 h) [nM] | IC50 ([6]; Homo sapiens, MDA-MB-453, 72 h) [nM] | Inhibition of HDAC 3 enzyme activities (kinetics) [8] | Cell cycle arrest [9] | IC50 ([7]; Homo sapiens, SW48, 72 h) [nM] | IC50 [11] [nM] | IC50 [12] [nM] | IC50 [13] [nM] | Percentage of Cell Cycle Distribution G0/G1 ([9]; SW48, 0.125 μM) [%] | Percentage of Cell Cycle Distribution G2/M ([9]; SW48, 0.125 μM) [%] | Percentage of Cell Cycle Distribution S ([9]; SW48, 0.125 μM) [%] | Percentage of Cell Cycle Distribution G0/G1 ([9]; SW48, 0.5 μM) [%] | Percentage of Cell Cycle Distribution G2/M ([9]; SW48, 0.5 μM) [%] | Percentage of Cell Cycle Distribution S ([9]; SW48, 0.5 μM) [%] | Percentage of Cell Cycle Distribution G0/G1 ([9]; SW48, 1 μM) [%] | Percentage of Cell Cycle Distribution G2/M ([9]; SW48, 1 μM) [%] | also measured
1 | Nc1cc(F)ccc1NC(=O)c1ccc(CNC(=O)/C=C/c2cccnc2)cc1 [Chidamide, reference compound] | BDL | 3090 ± 200 | 3240 ± 980 | 2720 ± 2600 | 25600 ± 3050 | 1770 ± 20 | stronger inhibition of HDAC 3 enzyme activities than Entinostat | induced cell cycle arrest in the G0/G1 phase |  |  |  |  |  |  |  |  |  |  |  |  | IC50 ([4]; 72 h): 4940 ± 870 nM; IC50 ([5]; 72 h): 17400 ± 1980 nM; IC50 ([6]; 72 h): 1360 ± 120 nM; IC50 ([7]; 72 h): 5430 ± 1060 nM; Percentage of Cell Cycle Distribution G0/G1 ([9]; SW48, 0.3125 μM): 65.7%; Percentage of Cell Cycle Distribution G2/M ([9]; SW48, 0.3125 μM): 16.7%; Percentage of Cell Cycle Distribution S ([9]; SW48, 0.3125 μM): 17.6%; Percentage of Cell Cycle Distribution G0/G1 ([9]; SW48, 0.625 μM): 68.1%; Percentage of Cell Cycle Distribution G2/M ([9]; SW48, 0.625 μM): 17.5%; Percentage of Cell Cycle Distribution S ([9]; SW48, 0.625 μM): 14.4%; Percentage of Cell Cycle Distribution G0/G1 ([9]; SW48, 1.25 μM): 70.6%; Percentage of Cell Cycle Distribution G2/M ([9]; SW48, 1.25 μM): 15.3%; Percentage of Cell Cycle Distribution S ([9]; SW48, 1.25 μM): 14.1%; Percentage of Cell Cycle Distribution G0/G1 ([9]; SW48, 5 μM): 79.9%; Percentage of Cell Cycle Distribution G2/M ([9]; SW48, 5 μM): 11.6%; Percentage of Cell Cycle Distribution S ([9]; SW48, 5 μM): 8.5%; Percentages of Cell Apoptosis ([10]; SW48, 0.3125 μM): 9.0%; Percentages of Cell Apoptosis ([10]; SW48, 0.625 μM): 10.2%; Percentages of Cell Apoptosis ([10]; SW48, 1.25 μM): 15.1%; Percentages of Cell Apoptosis ([10]; SW48, 5 μM): 35.4%
2 | Cc1ccc(/C=C/CC(=O)Nc2ccc(C(=O)Nc3ccc(F)cc3N)cc2)cn1 [GNTbm-03, 4-((E)-4-(6-methylpyridin-3-yl)but-3-enamido)-N-(2-amino-4-fluorophenyl)benzamide] | BDL |  | 4070 ± 680 | 6100 ± 134 | 26700 ± 5800 | 1810 ± 8 | stronger inhibition of HDAC 3 enzyme activities than GNTbm-01 |  | 5260 ± 900 | 560 ± 40 | 510 ± 50 | 670 ± 60 |  |  |  |  |  |  |  |  | 
3 | Cc1ccc(/C=C/CC(=O)Nc2ccc(C(=O)Nc3ccc(F)cc3N)cn2)cn1 [GNTbm-01, 6-((E)-4-(6-methylpyridin-3-yl)but-3-enamido)-N-(2-amino-4-fluorophenyl)pyridine-3-carboxamide] |  |  | 28500 ± 1850 | 24800 ± 1150 | 49800 ± 4900 | 20900 ± 4440 |  |  | > 50000 | 6770 ± 760 | 2680 ± 200 | 2750 ± 130 |  |  |  |  |  |  |  |  | 
4 | Nc1cc(F)ccc1NC(=O)c1ccc(NC(=O)C/C=C/c2cccnc2)cc1 [GNTbm-39, 4-((E)-4-(pyridin-3-yl)but-3-enamido)-N-(2-amino-4-fluorophenyl)benzamide] |  | 640 ± 30 |  | 1960 ± 20 | 2930 ± 450 | 1840 ± 20 |  | significantly induced cell cycle arrest in the G2/M phase in SW48 cells | 1730 ± 10 | 3700 ± 40 | 680 ± 30 | 890 ± 130 | 57.2 | 22.3 | 20.5 | 58.8 | 24.7 | 16.5 | 46.5 | 32.8 | Percentage of Cell Cycle Distribution S ([9]; SW48, 1 μM): 20.7%; Percentage of Cell Cycle Distribution G0/G1 ([9]; SW48, 2 μM): 42.3%; Percentage of Cell Cycle Distribution G2/M ([9]; SW48, 2 μM): 38.9%; Percentage of Cell Cycle Distribution S ([9]; SW48, 2 μM): 18.8%; Percentages of Cell Apoptosis ([10]; SW48, 0.125 μM): 9.5%; Percentages of Cell Apoptosis ([10]; SW48, 0.5 μM): 17.8%; Percentages of Cell Apoptosis ([10]; SW48, 1 μM): 25.4%; Percentages of Cell Apoptosis ([10]; SW48, 2 μM): 37.8%; Induction of apoptosis [10]: potent in inducing apoptosis in SW48 cells; Histone 3 acetylation expression versus Chidamide [14]: more potent in inducing the histone 3 acetylation expression in SW48 cells than Chidamide
5 | Nc1cc(F)ccc1NC(=O)c1ccc(NC(=O)C/C=C/c2cccnc2)cn1 [GNTbm-04, 5-((E)-4-(pyridin-3-yl)but-3-enamido)-N-(2-amino-4-fluorophenyl)pyridine-2-carboxamide] |  | 340 ± 40 |  | 1810 ± 60 | 1640 ± 4 | 1590 ± 3 |  | significant induced cell cycle arrest in G0/G1 phase in SW48 cells | 600 ± 90 | 380 ± 40 | 540 ± 7 | 200 ± 100 | 56.9 | 25.2 | 17.9 | 63.2 | 19.3 | 17.5 | 67.2 | 18.9 | solubility at 90 min ([1]; water, thermodynamic from solid): 7.2 µg/mL (≈ 18.4 µM); Percentage of Cell Cycle Distribution S ([9]; SW48, 1 μM): 13.9%; Percentage of Cell Cycle Distribution G0/G1 ([9]; SW48, 2 μM): 70.5%; Percentage of Cell Cycle Distribution G2/M ([9]; SW48, 2 μM): 18.7%; Percentage of Cell Cycle Distribution S ([9]; SW48, 2 μM): 10.8%; Percentages of Cell Apoptosis ([10]; SW48, 0.125 μM): 2.9%; Percentages of Cell Apoptosis ([10]; SW48, 0.5 μM): 10.8%; Percentages of Cell Apoptosis ([10]; SW48, 1 μM): 20.8%; Percentages of Cell Apoptosis ([10]; SW48, 2 μM): 32%; Induction of apoptosis [10]: potent in inducing apoptosis in SW48 cells; Histone 3 acetylation expression versus Chidamide [14]: more potent in inducing the histone 3 acetylation expression in SW48 cells than Chidamide
